Measurements: US20230085307A1, “PYRIDAZINONE COMPOUND AND HERBICIDE” (NISSAN CHEMICAL CORPORATION, priority 2019, published 2023)

Experiments:
oval-leafed pondweed [1] = assay: Test Example 1: herbicidal activity, application before weed generation under submerged conditions (Table 16, symbol C); format: in vivo, oval-leafed pondweed (Monochoria vaginalis); conditions: 80 g/ha applied herbicide
How it was run: (§1)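 Alluvial soil was flooded to 4 cm depth, weed seeds were sown mixed and 2.5-leaf rice seedlings were transplanted. On sowing day, the compound's emulsion, diluted in water to a set dose, was applied to the water surface. Plants grew at 25–30 °C and were scored 0–5 after three weeks.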

Japanese bulrush [2] = assay: Test Example 1: herbicidal activity, application before weed generation under submerged conditions (Table 16, symbol B); format: in vivo, Japanese bulrush (Schoenoplectus juncoides); conditions: 80 g/ha applied herbicide
How it was run: as §1

late watergrass [3] = assay: Test Example 1: herbicidal activity, application before weed generation under submerged conditions (Table 16, symbol A); format: in vivo, late watergrass (Echinochloa oryzicola); conditions: 80 g/ha applied herbicide
How it was run: as §1

Japanese bulrush [4] = assay: Test Example 2: herbicidal activity, application during weed generation under submerged conditions (Table 17, symbol B); format: in vivo, Japanese bulrush (Schoenoplectus juncoides); conditions: AAH 80 g/ha; application during weed generation, submerged conditions
How it was run: (§2)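 Mixed weed seedlings in alluvial soil under a 4 cm water layer, greenhouse-grown at 25–30° C. Compound given as a diluted emulsion into the floodwater at the 1–2 leaf stage; response graded after three weeks.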

late watergrass [5] = assay: Test Example 2: herbicidal activity, application during weed generation under submerged conditions (Table 17, symbol A); format: in vivo, late watergrass (Echinochloa oryzicola); conditions: AAH 80 g/ha; application during weed generation, submerged conditions
How it was run: as §2

oval-leafed pondweed [6] = assay: Test Example 2: herbicidal activity, application during weed generation under submerged conditions (Table 17, symbol C); format: in vivo, oval-leafed pondweed (Monochoria vaginalis); conditions: AAH 80 g/ha; application during weed generation, submerged conditions
How it was run: as §2

Cc1nn(C)c(=O)c(-c2c(-c3ccccc3)sc3ccc(-c4ccccc4)cc23)c1O [2-166]
Herbicidal effect on C: oval-leafed pondweed (grade 0-5) (oval-leafed pondweed [1]): 0 (Herbicidal rate of 5% or less (almost no effect))
Herbicidal effect on B: Japanese bulrush (grade 0-5) (Japanese bulrush [2]): 0 (Herbicidal rate of 5% or less (almost no effect))
Herbicidal effect on A: late watergrass (grade 0-5) (late watergrass [3]): 2 (Herbicidal rate of 20% or more and less than 40%)
herbicidal effect rating, B: Japanese bulrush (Japanese bulrush [4]): 3 (Herbicidal rate of 40% or more and less than 70%)
herbicidal effect rating, A: late watergrass (late watergrass [5]): 0 (Herbicidal rate of 5% or less (almost no effect))
herbicidal effect rating, C: oval-leafed pondweed (oval-leafed pondweed [6]): 0 (Herbicidal rate of 5% or less (almost no effect))
